Laboratory results published in patent publication US20100267561A1, “HERBICIDAL PYRIDAZINONE DERIVATIVES” (priority 2007, published 2010).

Key:
Assay in all cases: Test C pre-/postemergence plant response
Type in all cases: in vivo
[1] = tested on: Italian ryegrass (Lolium multiflorum)
Summary of the method: (§1)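 Application timings covered preemergence and postemergence (1- to 4-leaf plants, 2 to 18 cm), using a non-phytotoxic solvent mixture that included a surfactant. Controlled-environment holding lasted 15 to 25 days before visual scoring, where 100 denotes complete control and 0 no effect.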

[2] = tested on: spring wheat (Triticum aestivum)
Summary of the method: as §1

[3] = tested on: wild mustard (Sinapis arvensis)
Summary of the method: as §1

[4] = tested on: downy bromegrass (Bromus tectorum)
Summary of the method: as §1

[5] = tested on: spring barley (Hordeum vulgare)
Summary of the method: as §1

[6] = tested on: winter barley (Hordeum vulgare)
Summary of the method: as §1

wild oat (Avena fatua) = tested on: wild oat (Avena fatua)
Summary of the method: as §1

canola (Brassica rapa) = conditions: scale 0 to 100, 0 no effect, 100 complete control
Summary of the method: as §1

[7] = tested on: blackgrass (Alopecurus myosuroides)
Summary of the method: as §1

[8] = tested on: pigweed (Amaranthus retroflexus)
Summary of the method: as §1

[9] = tested on: windgrass (Apera spica-venti)
Summary of the method: as §1

[10] = tested on: canarygrass (Phalaris minor); conditions: Preemergence
Summary of the method: as §1

[11] = tested on: winter wheat (Triticum aestivum)
Summary of the method: as §1

[12] = tested on: green foxtail (Setaria viridis)
Summary of the method: as §1

[13] = tested on: annual bluegrass (Poa annua)
Summary of the method: as §1

[14] = Postemergence, 8 g ai/ha, scale 0 to 100, 0 no effect, 100 complete control
[15] = Postemergence, 16 g ai/ha, scale 0 to 100, 0 no effect, 100 complete control
[16] = Postemergence, 31 g ai/ha, scale 0 to 100, 0 no effect, 100 complete control
[17] = Postemergence, 62 g ai/ha, scale 0 to 100, 0 no effect, 100 complete control
[18] = Preemergence, 8 g ai/ha, scale 0 to 100 (0 no effect, 100 complete control)
[19] = Preemergence, 16 g ai/ha, scale 0 to 100 (0 no effect, 100 complete control)
[20] = Preemergence, 31 g ai/ha, scale 0 to 100 (0 no effect, 100 complete control)
[21] = Preemergence, 62 g ai/ha, scale 0 to 100, 0 no effect, 100 complete control

CCOC(=O)Oc1cnn(C)c(=O)c1-n1nc(-c2ccc(Cl)cc2)cc1C [Compound 53]
25: Plant response rating, Ryegrass, Italian [1, 18] | Plant response rating, Oat, Wild (wild oat (Avena fatua); [14])
15: Plant response rating, Barley, Winter [6, 19]
85: Plant response rating, Wheat, Spring [2, 20] | Plant response rating, Wheat, Spring [2, 21] | Plant response rating, Bromegrass, Downy [4, 21] | Plant response rating, Oat, Wild (wild oat (Avena fatua); [21])
5: Plant response rating, Wheat, Spring [2, 14]
80: Plant response rating, Wheat, Spring [2, 16] | Plant response rating, Bromegrass, Downy [4, 20]
30: Plant response rating, Bromegrass, Downy [4, 16] | Plant response rating, Windgrass [9, 19]
98: Plant response rating, Wheat, Spring [2, 17] | Plant response rating, Blackgrass [7, 20] | Plant response rating, Blackgrass [7, 21] | Plant response rating, Foxtail, Green [12, 15]
95: Plant response rating, Barley, Winter [6, 17] | Plant response rating, Canarygrass ([10]; 31 g ai/ha, scale 0 to 100 (0 no effect, 100 complete control)) | Plant response rating, Canarygrass ([10]; 62 g ai/ha, scale 0 to 100, 0 no effect, 100 complete control) | Plant response rating, Wheat, Winter [11, 17] | Plant response rating, Foxtail, Green [12, 14]
50: Plant response rating, Wheat, Spring [2, 15] | Plant response rating, Barley, Winter [6, 20] | Plant response rating, Barley, Winter [6, 21] | Plant response rating, Windgrass [9, 16] | Plant response rating, Wheat, Winter [11, 20]
40: Plant response rating, Barley, Spring [5, 15] | Plant response rating, Barley, Spring [5, 16] | Plant response rating, Barley, Spring [5, 20] | Plant response rating, Barley, Winter [6, 16] | Plant response rating, Bluegrass [13, 20]
0: Plant response rating, Wheat, Spring [2, 18] | Plant response rating, Mustard, Wild [3, 14] | Plant response rating, Mustard, Wild [3, 15] | Plant response rating, Mustard, Wild [3, 16] | Plant response rating, Mustard, Wild [3, 17] | Plant response rating, Mustard, Wild [3, 18] | Plant response rating, Mustard, Wild [3, 20] | Plant response rating, Mustard, Wild [3, 21] | Plant response rating, Bromegrass, Downy [4, 14] | Plant response rating, Barley, Spring [5, 14] | Plant response rating, Barley, Spring [5, 18] | Plant response rating, Barley, Spring [5, 19] | Plant response rating, Barley, Winter [6, 14] | Plant response rating, Barley, Winter [6, 18] | Plant response rating, Oat, Wild (wild oat (Avena fatua); [18]) | Plant response rating, Oat, Wild (wild oat (Avena fatua); [19]) | Plant response rating, Canola (canola (Brassica rapa); Postemergence, 8 g ai/ha) | Plant response rating, Canola (canola (Brassica rapa); Postemergence, 16 g ai/ha) | Plant response rating, Canola (canola (Brassica rapa); Postemergence, 31 g ai/ha) | Plant response rating, Canola (canola (Brassica rapa); Postemergence, 62 g ai/ha) | Plant response rating, Canola (canola (Brassica rapa); Preemergence, 62 g ai/ha) | Plant response rating, Pigweed [8, 14] | Plant response rating, Pigweed [8, 15] | Plant response rating, Pigweed [8, 16] | Plant response rating, Pigweed [8, 17] | Plant response rating, Pigweed [8, 18] | Plant response rating, Pigweed [8, 19] | Plant response rating, Pigweed [8, 20] | Plant response rating, Pigweed [8, 21] | Plant response rating, Windgrass [9, 14] | Plant response rating, Windgrass [9, 15] | Plant response rating, Windgrass [9, 18] | Plant response rating, Canarygrass ([10]; 8 g ai/ha, scale 0 to 100 (0 no effect, 100 complete control)) | Plant response rating, Canarygrass ([10]; 16 g ai/ha, scale 0 to 100 (0 no effect, 100 complete control)) | Plant response rating, Wheat, Winter [11, 14] | Plant response rating, Wheat, Winter [11, 18] | Plant response rating, Wheat, Winter [11, 19] | Plant response rating, Bluegrass [13, 14] | Plant response rating, Bluegrass [13, 15] | Plant response rating, Bluegrass [13, 16] | Plant response rating, Bluegrass [13, 18]
10: Plant response rating, Bromegrass, Downy [4, 18] | Plant response rating, Barley, Winter [6, 15] | Plant response rating, Wheat, Winter [11, 15]
100: Plant response rating, Ryegrass, Italian [1, 15] | Plant response rating, Ryegrass, Italian [1, 16] | Plant response rating, Ryegrass, Italian [1, 17] | Plant response rating, Ryegrass, Italian [1, 19] | Plant response rating, Ryegrass, Italian [1, 20] | Plant response rating, Ryegrass, Italian [1, 21] | Plant response rating, Barley, Spring [5, 17] | Plant response rating, Oat, Wild (wild oat (Avena fatua); [16]) | Plant response rating, Oat, Wild (wild oat (Avena fatua); [17]) | Plant response rating, Blackgrass [7, 15] | Plant response rating, Blackgrass [7, 16] | Plant response rating, Blackgrass [7, 17] | Plant response rating, Foxtail, Green [12, 16] | Plant response rating, Foxtail, Green [12, 17] | Plant response rating, Foxtail, Green [12, 20] | Plant response rating, Foxtail, Green [12, 21]
75: Plant response rating, Ryegrass, Italian [1, 14] | Plant response rating, Barley, Spring [5, 21] | Plant response rating, Oat, Wild (wild oat (Avena fatua); [20]) | Plant response rating, Blackgrass [7, 19] | Plant response rating, Windgrass [9, 20]
70: Plant response rating, Blackgrass [7, 18] | Plant response rating, Windgrass [9, 17] | Plant response rating, Wheat, Winter [11, 21]
35: Plant response rating, Bluegrass [13, 17]
90: Plant response rating, Bromegrass, Downy [4, 17] | Plant response rating, Oat, Wild (wild oat (Avena fatua); [15]) | Plant response rating, Windgrass [9, 21] | Plant response rating, Foxtail, Green [12, 18] | Plant response rating, Foxtail, Green [12, 19]
65: Plant response rating, Blackgrass [7, 14] | Plant response rating, Wheat, Winter [11, 16] | Plant response rating, Bluegrass [13, 21]
20: Plant response rating, Wheat, Spring [2, 19] | Plant response rating, Bromegrass, Downy [4, 15] | Plant response rating, Bromegrass, Downy [4, 19] | Plant response rating, Bluegrass [13, 19]
